Earlier results as cited in PubChem BioAssay AID1259409 (Chemical Carcinogenesis Research Information System (CCRIS), 2018).

Test system: rodent chemically induced tumor inhibition, incidence and multiplicity
Test: CCRIS tumor inhibitor studies
Conditions: Dose [Inhibitor]: 0

O=c1oc2c(O)c(O)cc3c(=O)oc4c(O)c(O)cc1c4c23
tumour outcome (control, treated, inhibition, significance) (Carcinogen: AZOXYMETHANE, 25843-45-2, 4000 PPM IN DIET BEGINNING PRIOR TO CARCINOGEN DOSE AND CONTINUING FOR DURATION OF STUDY (STUDY DURATION: 54 WK), Route [Inhibitor]: ORAL, Species: RAT, Strain/Sex: F344/MALE, Target Tissue: Type of Lesion: SMALL INTESTINE: ADENOCARCINOMA, Dose [Carcinogen]: 15 MG/KG 1/WK FOR 2 WK, Promoter: NONE USED): 50%, 36%, 28%, not calculated
tumour outcome (control, treated, inhibition, significance) (Carcinogen: AZOXYMETHANE, 25843-45-2, 4000 PPM IN DIET BEGINNING PRIOR TO CARCINOGEN DOSE AND CONTINUING FOR DURATION OF STUDY (STUDY DURATION: 54 WK), Route [Inhibitor]: ORAL, Species: RAT, Strain/Sex: F344/MALE, Target Tissue: Type of Lesion: SMALL INTESTINE: ADENOMA, Dose [Carcinogen]: 15 MG/KG 1/WK FOR 2 WK, Promoter: NONE USED): 3%, 0%, 100%, not calculated
tumour outcome (control, treated, inhibition, significance) (Carcinogen: AZOXYMETHANE, 25843-45-2, 4000 PPM IN DIET FOR 56 WK BEGINNING 2 WK PRIOR TO CARCINOGEN TREATMENT (STUDY DURATION: 56 WK), Route [Inhibitor]: ORAL, Species: RAT, Strain/Sex: F344/MALE, Target Tissue: Type of Lesion: COLON (DISTAL): TUMOR, Dose [Carcinogen]: 15 MG/KG 1/WK FOR 2 WK, Promoter: NONE USED): 47%, 47%, 0%, not significant
tumour outcome (control, treated, inhibition, significance) (Carcinogen: AZOXYMETHANE, 25843-45-2, 4000 PPM IN DIET FOR 56 WK BEGINNING 2 WK PRIOR TO CARCINOGEN TREATMENT (STUDY DURATION: 56 WK), Route [Inhibitor]: ORAL, Species: RAT, Strain/Sex: F344/MALE, Target Tissue: Type of Lesion: COLON (PROXIMAL): TUMOR, Dose [Carcinogen]: 15 MG/KG 1/WK FOR 2 WK, Promoter: NONE): 39%, 44%, -13%, not significant
tumour outcome (control, treated, inhibition, significance) (Carcinogen: AZOXYMETHANE, 25843-45-2, 8000 PPM IN DIET BEGINNING PRIOR TO CARCINOGEN DOSE AND CONTINUING FOR DURATION OF STUDY (STUDY DURATION: 54 WK), Route [Inhibitor]: ORAL, Species: RAT, Strain/Sex: F344/MALE, Target Tissue: Type of Lesion: COLON: ADENOCARCINOMA, Dose [Carcinogen]: 15 MG/KG 1/WK FOR 2 WK, Promoter: NONE USED): 72%, 64%, 11%, not calculated
tumour outcome (control, treated, inhibition, significance) (Carcinogen: AZOXYMETHANE, 25843-45-2, 8000 PPM IN DIET BEGINNING PRIOR TO CARCINOGEN DOSE AND CONTINUING FOR DURATION OF STUDY (STUDY DURATION: 54 WK), Route [Inhibitor]: ORAL, Species: RAT, Strain/Sex: F344/MALE, Target Tissue: Type of Lesion: COLON: ADENOMA, Dose [Carcinogen]: 15 MG/KG 1/WK FOR 2 WK, Promoter: NONE USED): 14%, 3%, 76%, not calculated
tumour outcome (control, treated, inhibition, significance) (Carcinogen: AZOXYMETHANE, 25843-45-2, 8000 PPM IN DIET BEGINNING PRIOR TO CARCINOGEN DOSE AND CONTINUING FOR DURATION OF STUDY (STUDY DURATION: 54 WK), Route [Inhibitor]: ORAL, Species: RAT, Strain/Sex: F344/MALE, Target Tissue: Type of Lesion: SMALL INTESTINE: ADENOCARCINOMA, Dose [Carcinogen]: 15 MG/KG 1/WK FOR 2 WK, Promoter: NONE USED): 50%, 28%, 44%, not calculated
tumour outcome (control, treated, inhibition, significance) (Carcinogen: AZOXYMETHANE, 25843-45-2, 8000 PPM IN DIET BEGINNING PRIOR TO CARCINOGEN DOSE AND CONTINUING FOR DURATION OF STUDY (STUDY DURATION: 54 WK), Route [Inhibitor]: ORAL, Species: RAT, Strain/Sex: F344/MALE, Target Tissue: Type of Lesion: SMALL INTESTINE: ADENOMA, Dose [Carcinogen]: 15 MG/KG 1/WK FOR 2 WK, Promoter: NONE USED): 3%, 0%, 100%, not calculated
tumour outcome (control, treated, inhibition, significance) (Carcinogen: AZOXYMETHANE, 25843-45-2, 8000 PPM IN DIET FOR 56 WK BEGINNING 2 WK PRIOR TO CARCINOGEN TREATMENT (STUDY DURATION: 56 WK), Route [Inhibitor]: ORAL, Species: RAT, Strain/Sex: F344/MALE, Target Tissue: Type of Lesion: COLON(DISTAL): TUMOR, Dose [Carcinogen]: 15 MG/KG 1/WK FOR 2 WK, Promoter: NONE USED): 47%, 47%, 0%, not significant
tumour outcome (control, treated, inhibition, significance) (Carcinogen: AZOXYMETHANE, 25843-45-2, 8000 PPM IN DIET FOR 56 WK BEGINNING 2 WK PRIOR TO CARCINOGEN TREATMENT (STUDY DURATION: 56 WK), Route [Inhibitor]: ORAL, Species: RAT, Strain/Sex: F344/MALE, Target Tissue: Type of Lesion: COLON(PROXIMAL): TUMOR, Dose [Carcinogen]: 15 MG/KG 1/WK FOR 2 WK, Promoter: NONE USED): 39%, 30%, 23%, not significant
tumour outcome (control, treated, inhibition, significance) (Carcinogen: BENZO[A]PYRENE, 50-32-8, 300 NMOL (TOTAL DOSE) APPLIED 10 MIN PRIOR TO CARCINOGEN DOSE INJECTED AS 1/7, 2/7, AND 4/7 OF THE TOTAL ON DAYS 1, 8, Route [Inhibitor]: INTRAPERITONEAL, Species: MOUSE, Strain/Sex: ICR/MALE, FEMALE, Target Tissue: Type of Lesion: LUNG: TUMOR, Dose [Carcinogen]: 450 NMOL (TOTAL DOSE) INJECTED IN DOSES OF 1/7, 2/7, AND 4/7 ON DAYS 1, 8, AND 15 OF LIFE, RESPECTIVELY, Promoter: NONE USED): 74%, 75%, -1%, not significant
